Structures are written as SMILES.

The target of test [1] is T1, Sphingosine kinase 1 (Homo sapiens, UniProt Q9NYA1). Kind of test: biochemical.
Description: (§1) Inhibition of human recombinant SPHK1 expressed in baculovirus-infected Sf9 cells
In test [2] the target is T2, Sphingosine kinase 2 (Mus musculus, UniProt Q9JIA7).
T2 sequence (Q9JIA7 whole entry): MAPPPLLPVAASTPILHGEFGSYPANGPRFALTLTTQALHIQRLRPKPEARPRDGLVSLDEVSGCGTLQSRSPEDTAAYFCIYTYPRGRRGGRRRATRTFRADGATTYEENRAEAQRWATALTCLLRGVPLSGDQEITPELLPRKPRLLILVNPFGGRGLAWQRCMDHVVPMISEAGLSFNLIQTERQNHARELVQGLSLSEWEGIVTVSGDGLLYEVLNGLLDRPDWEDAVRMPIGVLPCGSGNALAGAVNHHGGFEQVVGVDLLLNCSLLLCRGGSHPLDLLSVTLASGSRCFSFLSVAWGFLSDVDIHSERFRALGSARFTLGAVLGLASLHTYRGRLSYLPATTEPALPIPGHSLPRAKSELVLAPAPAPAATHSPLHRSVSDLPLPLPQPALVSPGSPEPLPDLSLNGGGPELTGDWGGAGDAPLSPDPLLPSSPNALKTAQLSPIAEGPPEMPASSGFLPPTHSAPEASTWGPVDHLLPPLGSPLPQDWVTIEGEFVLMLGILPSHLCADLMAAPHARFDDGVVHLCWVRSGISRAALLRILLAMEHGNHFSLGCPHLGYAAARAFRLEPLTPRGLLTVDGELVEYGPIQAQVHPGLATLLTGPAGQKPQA
In words: Inhibition of mouse recombinant SPHK2 expressed in baculovirus-infected Sf9 cells.

Test [3] concerns the target T1, Sphingosine kinase 1.
Description: as §1
Test [4] has as its target Sphingosine kinase 2 (Mus musculus) (UniProt Q9JIA7). In words: Inhibition of SPHK2.

T1 sequence (Q9NYA1 whole entry): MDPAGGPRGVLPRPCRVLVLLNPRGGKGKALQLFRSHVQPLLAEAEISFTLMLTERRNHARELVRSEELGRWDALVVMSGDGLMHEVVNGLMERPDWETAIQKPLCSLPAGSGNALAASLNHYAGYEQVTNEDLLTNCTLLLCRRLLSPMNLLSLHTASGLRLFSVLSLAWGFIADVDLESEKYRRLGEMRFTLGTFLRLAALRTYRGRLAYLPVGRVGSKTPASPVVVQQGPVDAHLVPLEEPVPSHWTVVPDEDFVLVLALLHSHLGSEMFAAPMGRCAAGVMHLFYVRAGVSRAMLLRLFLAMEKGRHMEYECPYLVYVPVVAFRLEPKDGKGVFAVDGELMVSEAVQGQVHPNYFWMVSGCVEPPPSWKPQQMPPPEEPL

Regarding `N=C(N)C1(NC(=O)CCCCCCCCCCOCC2CCCCC2)CC1`, the results for the inhibition constant (Ki) in test [1] and in test [2] were 95 nM and 12 µM, respectively.
On the same counts, the results for `N=C(N)[C@@H]1CCCN1C(=O)CCCCCCCCCCOCC1CCCCC1` are 130 nM and 8 µM.
On the same counts, the results for `N=C(N)C1(C(=O)NCCCCCCCCCCOCC2CCCC2)CC1` are 450 nM and 25 µM.
`Oc1ccc(Nc2nc(-c3ccc(Cl)cc3)cs2)cc1`: in test [2], the Ki (commonly a measure of affinity in units of concentration, obtained from inhibition or displacement) amounted to 33 µM.
`N=C(N)[C@@H]1CCCN1C(=O)c1ccc(-c2nc(-c3cccc(CCC4CCCCC4)c3)co2)cc1`: the Ki in test [2] amounted to 4.2 µM; in test [3] it was 47 nM.
On to `N=C(N)C1(C(=O)Nc2ccc(CCCCCCOCC3CCCCC3)cc2)CC1`, for which the Ki in test [1] was 390 nM; in test [2], 12 µM.
The like results for `N=C(N)C1(C(=O)Nc2ccc(CCCCCCCCOCC3CCCCC3)cc2)CC1` were, in that order, 800 nM and above 20 µM.
On the same counts, the results for `CCCCOCCCCCCCc1ccc(C(=O)NC2(C(=N)N)CC2)cc1` are 1300 nM and 40 µM.
The like results for `CCCCCCCCCCCCCCCCCCNC(=O)C1(C(=N)N)CC1` were, in that order, 9000 nM and above 100 µM.
`N=C(N)[C@@H]1CCCN1C(=O)c1ccc(-c2nc(-c3cccc(CCC4CCCCC4)c3)cs2)cc1`: the Ki in test [1] was found to be 110 nM; in test [2], 6 µM.
On the same counts, the results for `N=C(N)[C@@H]1CCCN1C(=O)c1ccc(CCCCCCCCCC2CCCCC2)cc1` are 99 nM and 5.3 µM.
The like results for `N=C(N)C1(C(=O)Nc2ccc(CCCCCCCOCC3CCCCC3)cc2)CC1` were, in that order, 240 nM and 7 µM.
In the case of `N=C(N)[C@@H]1CCCN1C(=O)c1ccc(CCCCCCCOCC2CCCCC2)cc1`, the Ki in test [2] is 3 µM; in test [3], 75 nM.
As to `CCCCCCCCCCCOc1ccc(C(=O)NC2(C(=N)N)CC2)cc1`, the Ki in test [1] amounted to 4000 nM; in test [2], 10 µM.
The like results for `N=C(N)C1(C(=O)Nc2ccc(CCCCCCCCc3ccccc3)cc2)CC1` were, in that order, 1300 nM and above 10 µM.
The like results for `N=C(N)C1(C(=O)Nc2ccc(CCCCCCCCCc3ccccc3)cc2)CC1` were, in that order, 500 nM and above 10 µM.
With `N=C(N)C1(C(=O)NCCCCCCCCCCOCC2CCCCC2)CC1`, the Ki in test [2] is 26 µM; in test [3] it was 110 nM.
For `N=C(N)C1(NC(=O)c2ccc(CCCCCCCOCC3CCCC3)cc2)CC1`, the values for the Ki in test [1] and in test [2] were 170 nM and 18 µM, respectively.
As for `N=C(N)C1(C(=O)Nc2ccc(CCCCCCCOCC34CC5CC(CC(C5)C3)C4)cc2)CC1`, the values for the Ki in test [1] and in test [2] were 1500 nM and 4.6 µM, respectively.
For the compound `CCCCCCCCCCCCCCCCNC(=O)C1(C(=N)N)CC1`, the Ki in test [1] was 5400 nM; in test [2], above 100 µM.
In the case of `CCCCCCCCCCCCCCNC(=O)C1(C(=N)N)CC1`, the inhibition constant Ki in test [1] is 6000 nM; in test [2] it was 7.5 µM.
As for `N=C(N)C1(C(=O)Nc2ccc(CCCCCCCOCc3ccccc3)cc2)CC1`, the values for the Ki in test [1] and in test [2] were 5000 nM and 38 µM, respectively.
On the same counts, the results for `N=C(N)C1(NC(=O)c2ccc(CCCCCCCOCC3CCCCC3)cc2)CC1` are 130 nM and 15 µM.
As to `CCCCCCCCc1ccc(NC(=O)[C@@H](N)CCO)cc1`, the Ki in test [4] and in test [2] was 31 µM in each case.
Take `CCCCCCCCCCCCc1ccc(C(=O)NC2(C(=N)N)CCC2)cc1`: the figures for the Ki in test [1] and in test [2] were 1600 nM and 5 µM, respectively.
The like results for `N=C(N)[C@@H]1CCCN1C(=O)c1ccc(-c2nc(-c3cccc(CCC4CCCCC4)c3)c[nH]2)cc1` were, in that order, 2000 nM and 20 µM.

The values are drawn from ChEMBL document CHEMBL1772987, “Development of amidine-based sphingosine kinase 1 nanomolar inhibitors and reduction of sphingosine 1-phosphate in human leukemia cells” (J Med Chem, 2011).
